Results on 37 compounds are retold here after patent publication US7087757B2, “Phenyl-substituted imidazopyridines” (Ortho-McNeil Pharmaceutical, Inc., priority 2000, dated 2006).

The target in this test is T1, human histamine H3 receptor (Homo sapiens, UniProt Q9Y5N1).
T1 construct: One microgram supercoiled H3 receptor cDNA was added to the cells and mixed; expressed in transfected cells; membranes prepared from cell pellets
T1 sequence (Q9Y5N1 whole entry): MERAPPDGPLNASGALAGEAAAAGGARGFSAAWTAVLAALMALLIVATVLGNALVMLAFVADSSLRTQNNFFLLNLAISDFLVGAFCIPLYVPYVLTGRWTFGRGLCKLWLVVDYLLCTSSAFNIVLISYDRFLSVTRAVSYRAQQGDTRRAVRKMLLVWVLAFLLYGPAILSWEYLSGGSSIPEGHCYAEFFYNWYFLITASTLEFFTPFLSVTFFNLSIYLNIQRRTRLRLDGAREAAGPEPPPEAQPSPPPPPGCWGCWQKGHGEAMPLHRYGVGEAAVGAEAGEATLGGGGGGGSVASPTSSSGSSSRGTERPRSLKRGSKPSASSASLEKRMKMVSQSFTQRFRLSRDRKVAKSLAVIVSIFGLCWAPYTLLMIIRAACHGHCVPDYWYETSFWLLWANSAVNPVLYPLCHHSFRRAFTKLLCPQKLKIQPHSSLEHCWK
As to the kind of experiment: [3H]-N-methylhistamine binding. The following applies: membranes of histamine H3 receptor-expressing SK-N-MC cells; 0.8 nM [3H]-N-methylhistamine; 45 minutes at 25° C.; Ki calculated with KD of 800 pM. As to the method: Screening using the human receptor is particularly important for the identification of new therapies for the treatment of human disease.
A 10 cm tissue culture dish with a confluent monolayer of SK-N-MC cells was split two days prior to transfection. Using sterile technique the media was removed and the cells were detached from the dish by the addition of trypsin. One fifth of the cells were then placed onto a new 10 cm dish. Cells were grown in a 37° C. incubator with 5% CO2 in Minimal Essential Media Eagle with 10% Fetal Bovine Serum. After two days cells were approximately 80% confluent. These were removed from the dish with trypsin and pelleted in a clinical centrifuge. […] One microgram supercoiled H3 receptor cDNA was added to the cells and mixed. The voltage for the electroporation was set at 0.25 kV, the capacitance is set at 960 μF.
After electroporation the cells were diluted into 10 mL complete media and plated onto four 10 cm dishes. Due to the variability in the efficiency of electroporation, four different concentrations of cells were plated. The ratios used were: 1:20, 1:10, and 1:5, with the remainder of the cells being added to the fourth dish. The cells were allowed to recover for 24 hours before adding the selection media (complete media with 600 μg/ml G418). After 10 days dishes were analyzed for surviving colonies of cells. Dishes with well-isolated colonies were used. Cells from individual colonies were isolated and tested. SK-N-MC cells were used because they give efficient coupling for inhibition of adenylate cyclase. The clones that gave the most robust inhibition of adenylate cyclase in response to histamine were used for further study.
Cell pellets from histamine H3 receptor-expressing SK-N-MC cells were homogenized in 20 mM Tris HCl/0.5 mM EDTA. Supernatants from a 800 g spin were collected, reccentrifuged at 30,000 g for 30 minutes. Pellets were rehomogenized in 50 mM Tris/5 mM EDTA (pH 7.4). Membranes were incubated with 0.8 nM [^3H]-N-methylhistamine plus/minus test compounds for 45 minutes at 25° C. and harvested by rapid filtration over GF/C glass fiber filters (pretreated with 0.3% polyethylenimine) followed by four washes with ice cold buffer. Filters were dried, added to 4 mL scintillation cocktail and then counted on a liquid scintillation counter.
The Ki is the equilibrium dissociation constant of an inhibitor or competing ligand from its target. Turning to `Cc1cccn2cc(-c3ccc(OCCCN4CCOCC4)cc3)nc12` [Example 55, 2-(4-Morpholinopropoxyphenyl)-8-methylimidazo[1,2-a]pyridine], the Ki is 0.025 µM.
`COc1cc(-c2cn3ccc(C)cc3n2)ccc1OCCCN1CCCCCC1` [Example 14, 2-[4-(3-Azepan-1-yl-propoxy)-3-methoxy-phenyl]-7-methyl-imidazo[1,2-a]pyridine]: the Ki is 0.034 µM.
Take `c1cc(-c2cn3c(n2)CCCC3)ccc1OCCCN1CCCCC1` [Example 16, 2-[4-(3-Piperidin-1-yl-propoxy)-phenyl]-5,6,7,8-tetrahydro-imidazo[1,2-a]pyridine]: the inhibition constant (Ki) is 0.00075 µM.
For the compound `Cc1cccn2cc(-c3ccc(OCCCNCc4ccccc4)cc3)nc12` [Example 43, 2-(4-Benzylaminopropoxyphenyl)-8-methylimidazo[1,2-a]pyridine], the Ki was 1 µM.
As to `Cc1cccn2cc(-c3ccc(OCC(O)CN4CCN(Cc5ccccc5)CC4)cc3)nc12` (stereo not shown) [Example 51, 2-[4-[2-Hydroxy-3-(4-benzylpiperazino)propoxy]phenyl]-8-methylimidazo[1,2-a]pyridine], the Ki is 5 µM.
The value for `Cc1ccn2cc(-c3ccc(OCCCN4CCCCC4)cc3C)nc2c1` [Example 22, 2-(4-Piperidinopropoxy-2-methylphenyl)-7-methylimidazo[1,2-a]pyridine] was 0.001 µM.
For `Cc1cccn2cc(-c3ccc(OCCCN4CCCCC4)cc3)nc12` [Example 54, 2-(4-Piperidinopropoxyphenyl)-8-methylimidazo[1,2-a]pyridine], the Ki is 0.001 µM.
In the case of `Cc1cccn2cc(-c3ccc(OCC(O)CN4CCN(CCc5ccccc5)CC4)cc3)nc12` (stereo not shown) [Example 50, 2-[4-[2-Hydroxy-3-(4-phenethylpiperazino)propoxy]phenyl]-8-methylimidazo[1,2-a]pyridi], the inhibition constant Ki was 1 µM.
As for `Cc1cccn2cc(-c3ccc(OCCCNC(C)c4ccccc4)cc3)nc12` (stereo not drawn) [Example 42, 2-(4-alpha-Methylbenzylaminopropoxyphenyl)-8-methylimidazo[1,2-a]pyridine], the Ki was 1 µM.
For `Cc1ccn2cc(-c3ccc(OCCCNCc4ccc(F)cc4)cc3)nc2c1` [Example 25, 2-(4-(4-Fluorobenzyl)aminopropoxyphenyl)-7-methylimidazo[1,2-a]pyridine], the Ki was 1.5 µM.
As for `Cc1ccn2cc(-c3ccc(CCCCN4CCCCC4)cc3)nc2c1` [Example 38, 7-Methyl-2-[4-(4-piperdin-1-yl-butyl)-phenyl]imidazo[1,2-a]pyridine], the Ki was 0.029 µM.
As for `Cc1ccn2cc(-c3ccc(C#CCCN4CCCCC4)cc3)nc2c1` [Example 33, 2-[4-[4-Piperidinobut-1-ynyl]phenyl]-7-methylimidazo[1,2-a]pyridine], the Ki was 0.003 µM.
For the compound `CCN(CCOc1ccc(-c2cn3ccccc3n2)cc1)c1ccccc1` [Example 10, 2-(4-(N-Ethyl)anilinoethoxyphenyl)imidazo[1,2-a]pyridine], the inhibitory constant (Ki) was 0.611 µM.
On to `Cc1ccn2cc(-c3ccc(C#CCCN4CCCC4)cc3)nc2c1` [Example 34, 2-[4-[4-Pyrrolidinobut-1-ynyl]phenyl]-7-methylimidazo[1,2-a]pyridine], for which the Ki is 0.003 µM.
For the compound `CCN(CC)CCNC(=O)c1ccc(-c2cn3cccc(C)c3n2)cc1` [Example 1, N-(2-Diethylamino-ethyl)-4-(8-methyl-imidazo[1,2-a]pyridin-2-yl)-benzamide], the inhibitory constant (Ki) is 0.09 µM.
Next, `Cc1ccn2cc(-c3ccc(CCCCN4CCCCCC4)cc3)nc2c1` [Example 39, 2-[4-(4-Azepan-1-yl-butyl)-phenyl]-7-methyl-imidazo[1,2-a]pyridine]: 0.057 µM; `c1ccn2cc(-c3ccc(OCCCN4CCCCC4)cc3)nc2c1` [Example 52, 2-[4-(3-Piperidin-1-yl-propoxy)-phenyl]-imidazo[1,2-a]pyridine]: 0.005 µM.
On to `Cc1cccn2cc(-c3ccc(OCCCNC4CCN(Cc5ccccc5)CC4)cc3)nc12` [Example 44, 2-[4-[N-[(1-Benzylpiperidino)amino]propoxy]phenyl]-8-methylimidazo[1,2-a]pyridine], for which the Ki is 0.15 µM.
For the compound `CC1CCn2cc(-c3ccc(CCCCN4CCCCC4)cc3)nc2C1` (stereo not shown) [Example 41, 7-Methyl-2-[4-(4-piperidin-1-yl-butyl)-phenyl]-5,6,7,8-tetrahydro-imidazo[1,2-a]pyridine], the Ki was 0.027 µM.
Turning to `Cc1cc(-c2cn3ccccc3n2)ccc1OCCC1CCCN1C` (stereo not shown) [Example 11, 2-[4-[2-(1-Methyl)-2-pyrrolidino]ethoxy-3-methylphenyl]imidazo[1,2-a]pyridine], the Ki was 0.007 µM.
For the compound `CCN(CC)CCCNc1ccc(-c2cn3ccc(C)cc3n2)cc1` [Example 30, N,N-Diethyl-N′-[4-(7-methyl-imidazo[1,2-a]pyridin-2-yl)-phenyl]-propane-1,3-diamine], the Ki is 0.003 µM.
Take `Cc1ccn2cc(-c3ccc(OCCCN4CCC(N5CCCCC5)CC4)cc3C)nc2c1` [Example 23, 2-(4-(4-Piperidino)piperidinopropoxy-2-methylphenyl)-7-methylimidazo[1,2-a]pyridine]: the Ki is 0.014 µM.
Take `Cc1cccn2cc(-c3ccc(NC(=O)CCN4CCCCC4)cc3)nc12` [Example 28, 2-[4-[3-(Piperidinyl)]propanamidophenyl]-8-methylimidazo[1,2-a]pyridine]: the Ki was 0.158 µM.
As to `Cc1ccn2cc(-c3ccc(OCCCN4CCCC4)cc3)nc2c1` [Example 18, 2-(4-Pyrrolidinopropoxyphenyl)-7-methylimidazo[1,2-a]pyridine], the Ki was 0.002 µM.
As to `CCCN(CCC)CC(O)COc1ccc(-c2cn3cccc(C)c3n2)cc1` (stereo not shown) [Example 47, 2-(4-Dipropylamino(2-hydroxy)propoxyphenyl)-8-methylimidazo[1,2-a]pyridine], the Ki was 0.5 µM.
As to `Cc1ccn2cc(-c3cccc(OCCCN4CCCCC4)c3)nc2c1` [Example 15, 7-Methyl-2-[3-(3-piperidin-1-yl-propoxy)-phenyl]-imidazo[1,2-a]pyridine], the Ki is 0.028 µM.
For the compound `CCCN(CCC)CC(C)COc1ccc(-c2cn3cccc(C)c3n2)cc1` (stereo not shown) [Example 5, {2-Methyl-3-[4-(8-methyl-imidazo[1,2-a]pyridin-2-yl)-phenoxy]-propyl}-dipropyl-amine], the Ki is 0.05 µM.
The value for `Cc1cc(-c2cn3cccc(C)c3n2)ccc1OCCCN1CCCCC1` [Example 9, 2-(4-Piperidinopropoxy-3-methylphenyl)-8-methylimidazo[1,2-a]pyridine] was 0.032 µM.
For the compound `Cc1cccn2cc(-c3ccc(NS(=O)(=O)CCCN4CCCCC4)cc3)nc12` [Example 53, 3-Piperidin-1-yl-propane-1-sulfonic acid [4-(8-methyl-imidazo[1,2-a]pyridin-2-yl)-phenyl]], the Ki is 0.63 µM.
Regarding `Cc1ccn2cc(-c3ccc(/C=C/CCN4CCCC4)cc3)nc2c1` [Example 40, 7-Methyl-2-[4-(4-pyrrolidin-1-yl-but-1-enyl)-phenyl]imidazo[1,2-a]pyridine], the Ki is 0.017 µM.
`Cc1cccn2cc(-c3ccc(NCCCN4CCCCC4)cc3)nc12` [Example 27, 2-[4-[3-(Piperidino)propylamino]phenyl]-8-methylimidazo[1,2-a]pyridine]: the Ki is 0.007 µM.
Regarding `CCN(CC)CCCNc1ccc(-c2cn3cccc(C)c3n2)cc1` [Example 29, N,N-Diethyl-N′-[4-(8-methyl-imidazo[1,2-a]pyridin-2-yl)-phenyl]-propane-1,3-diamine], the Ki is 0.009 µM.
As to `Cc1ccn2cc(-c3ccc(C=CCCN4CCCCC4)cc3)nc2c1` (mixture of isomers) [Example 36, (E/Z)-2-[4-[4-Piperidinobut-1-enyl]phenyl]-7-methylimidazo[1,2-a]pyridine], the Ki is 0.011 µM.
Consider `Cc1cccn2cc(-c3ccc(OCC(O)CNC(C)(C)C)cc3)nc12` (stereo not shown) [Example 49, 2-(4-(2-hydroxy-3-(1,1-Dimethylethyl)aminopropoxy)phenyl)-8-methylimidazo[1,2-a]pyridine], for which the Ki is 1 µM.
`Cc1cccn2cc(-c3ccc(NCCN4CCCC4)cc3)nc12` [Example 32, [4-(8-Methyl-imidazo[1,2-a]pyridin-2-yl)-phenyl]-(2-pyrrolidin-1-yl-ethyl)-amine]: the Ki was 0.007 µM.
On to `CCCCN(CCCC)CC(O)COc1ccc(-c2cn3cccc(C)c3n2)cc1` (stereo not shown) [Example 48, 2-(4-Dibutylamino(2-hydroxy)propoxyphenyl)-8-methylimidazo[1,2-a]pyridine], for which the inhibition constant (Ki) is 1 µM.
Take `Cc1cccn2cc(-c3ccc(NCCN4CCCCC4)cc3)nc12` [Example 31, [4-(8-Methyl-imidazo[1,2-a]pyridin-2-yl)-phenyl]-(2-piperidin-1-yl-ethyl)-amine]: the Ki was 0.008 µM.
